Measured values from US20060148707A1, “Use of ligands to GABA beta receptors” (priority 1999, published 2006).

Tests used:
Format in all cases: in vivo, Wistar rats
[1] = test system: NT-3-protein; assay: NT-3 protein in rat cortex, hippocampus and spinal cord after i.p. treatment (immunoassay); settings: 4 mg/kg i.p.
Description: (§1) Male adult Wistar rats (10-12 weeks) are killed by decapitation. The brains are removed, rapidly dissected with nuclease-free instruments on an ice-cold metal-plate, transferred to sterile cryotubes, and immediately shock-frozen by immersions in liquid nitrogen. Tissues are stored at −80° C. until further processing. Samples for the measurement of neurotrophin protein levels are prepared according to Lüesse et al., Exp. Brain Res. 1998: 119, 1-8. The homogenates are centrifuged at 12,500 g for 60 min, and the supernatants are used for NGF, BDNF and neurotrophin-3 (NT-3) quantification using specific ELISA assays.
To measure the immunoreactive NGF into the cortex, hippocampus and spinal cord of rats, a two-site ELISA is used (Weskamnp, G. and Otten, U. 1987, J. Neurochem. 48, 1779-1786). Anti-β (2.5S, 7S) NGF and anti-β (2.5S, 7S) NGF-β-gal (clone 27/21) (Boehringer Mannheim) are applied, and the NGF content in the samples is determined by comparison with an NGF standard curve (absorbance measurement at 595 nm using an ELISA reader, Dynatech MR 700). For quantification of BDNF and NT-3 levels, specific immunoassay systems are used according to the manufacturer's (Promega) protocols but modified by Heese, K. and Otten, U., 1998, J. Neurochem. 70, 699-707. Statistical evaluation of results is performed by applying analysis of variance, and the statistical error is the SEM. […]

[2] = test system: NGF mRNA; assay: NGF mRNA in rat cortex, hippocampus and spinal cord after i.p. treatment (RT-PCR, ratio to S12); settings: 3 and 10 mg/kg i.p., 6 and 24 hours after treatment
Description: as §1
(§2) Total cellular RNA is isolated according to the TRIZOL®-protocol (Gibco BRL, Eggenstein) as described by Lüesse et al. (see above).
(§3) Before being subjected to RT-PCR, the RNA extracts are supplemented with internal control RNA and optimized as described in detail by Heese K. et al., 1998, Neural Notes III, 21-23. Total RNA of each sample is first reverse-transcribed into cDNA which in turn is subjected to PCR amplification using primers specific for NGF and BDNF as described by Heese K et al., (see above).
(§4) For the quantification of neurotrophin transcripts, the ratios of densitometric scores for NGF or BDNF and S12 PCR products are calculated. Data are means±SEM of three independent experiments, each done in duplicate. N=4 to 6 for each group.

[3] = test system: BDNF mRNA; assay: BDNF mRNA in rat cortex, hippocampus and spinal cord after i.p. treatment (RT-PCR, ratio to S12); settings: 3 and 10 mg/kg i.p., 6 and 24 hours after treatment
Description: as §1, §2, §3, §4

Structure (SMILES)	increase of NT-3-protein levels [1] [fold]	increase of NGF mRNA [2] [fold]	increase of BDNF mRNA [3] [fold]
NCC(CC(=O)O)c1ccc(Cl)cc1 (stereo not drawn) [compound C, β-(aminomethyl)-4-chlorobenze propanoic acid]	3		
C[C@H](NC[C@H](O)CP(=O)(O)CC1CCCCC1)c1cccc(C(=O)O)c1 [compound A]		2.0 to 2.5	2 to 3
